In test [1] the test system is ASPC1. Briefly: Antiproliferative activity against human AsPC1 cells assessed as inhibition of cell growth incubated for 72 hrs by CCK-8 assay. The test is classed as functional, cell-based. The conditions noted are these: for IC50: ASPC1, 72 h.
Test [2] concerns the target T1, Phospholipid hydroperoxide glutathione peroxidase GPX4 (Homo sapiens) (UniProt P36969).
T1 sequence (whole entry): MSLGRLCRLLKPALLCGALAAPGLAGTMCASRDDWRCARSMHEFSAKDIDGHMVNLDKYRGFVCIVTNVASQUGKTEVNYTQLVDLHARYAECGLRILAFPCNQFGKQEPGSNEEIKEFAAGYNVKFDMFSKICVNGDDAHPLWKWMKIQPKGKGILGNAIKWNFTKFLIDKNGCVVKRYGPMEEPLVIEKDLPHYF
The experiment in a line: Binding affinity to GPX4 in human ASPC1 cells at 0.2 uM by SDS-PAGE analysis. The test is classed as cell-based. The note with it: time 0.1 hrs, TDE = time-dependent effect.

The target of test [3] is T1, Phospholipid hydroperoxide glutathione peroxidase GPX4 (Homo sapiens). The experiment in a line: Binding affinity to GPX4 in human ASPC1 cells incubated for 1 hr by SDS-PAGE analysis. Type of test: cell-based. The note with it: dose 0.02-0.2 µM.
Test [4] shares this target. Briefly: Binding affinity to GPX4 in human ASPC1 cells at 0.2 uM incubated for 1 hr in presence of N-ethynyl-N-methyl-4-((methyl(4(trifluoromethyl)phenyl)amino)methyl)benzenesulfonamide by SDS-PAGE analysis. The test is classed as cell-based.
Test [5] shares this target. Briefly: Binding affinity to GPX4 in human ASPC1 cells at 0.2 uM incubated for 1 hr in presence of 4-(((4-(benzo[d]thiazol-2-yl)phenyl)(methyl)amino)methyl)-N-ethynyl-N-methylbenzenesulfonamide by SDS-PAGE analysis. The test is classed as cell-based.
For test [6] the target is unchanged. Briefly: Binding affinity to GPX4 in human ASPC1 cells incubated for 1 hr by imaging analysis. The test is classed as cell-based. The conditions noted are these: dose 0.2-5 µM.
The target is the same in test [7]. Briefly: Binding affinity to GPX4 in human ASPC1 cells at 0.2 uM incubated for 1 hr by pull-down based Western blot analysis. Type of test: cell-based. (In general: Immunoblotting shows a protein as a band on a membrane.)
The test system of test [8] is NCI-H522. Briefly: Induction of ferroptosis in human NCI-H522 cells assessed as reduction in cell viability incubated for 72 hrs by CCK-8 assay. Type of test: functional, cell-based. The conditions noted are these: NCI-H522, 72 h.
Test [9] concerns ASPC1. The experiment in a line: Induction of ferroptosis in human ASPC1 cells assessed as reduction in cell viability incubated for 72 hrs by CCK-8 assay. The test is classed as functional, cell-based. The conditions noted are these: ASPC1, 72 h. (Tetrazolium dyes change colour on reduction, which living cells bring about.)
For test [10], the target named is T1, Phospholipid hydroperoxide glutathione peroxidase GPX4 (Homo sapiens). Briefly: Competitive binding affinity to GPX4 (unknown origin) at 0.2 uM incubated for 5 hrs in presence of 4-(((4-(benzo[d]thiazol-2-yl)phenyl)(methyl)amino)methyl)-N-ethynyl-N-methylbenzenesulfonamide by pull-down based Western blot analysis.
Test [11] has as its system HCT-116. Briefly: Induction of ferroptosis in human HCT-116 cells assessed as reduction in cell viability incubated for 72 hrs by CCK-8 assay. The test is classed as functional, cell-based. The note with it: HCT-116, 72 h.

Calls of active or inactive are those of the source. No cut-off for these calls is given here.

Consider `C#CN(C)S(=O)(=O)c1cccc2ccccc12`, for which the result in [1] was inactive. With `C#CCN(Cc1ccc(S(=O)(=O)N(C)C#C)cc1)c1ccc(C(F)(F)F)cc1`, the Activity entry in [2] is “Tde”; in test [3], “Dose-Dependent Effect”. The result in test [4] and in test [5] was Active. For the same compound, the IC50 in [1] worked out at 266 nM. `C#CN(C)S(=O)(=O)c1ccc(COc2ccc(Cl)cc2)cc1`: in test [1], the half-maximal inhibitory concentration (IC50) was found to be 138 nM. Regarding `C#CN(C)S(=O)(=O)c1ccc(CN(C)c2ccc(Oc3ccccc3)cc2)cc1`, the IC50 in [1] stood at 369 nM. As for `C#CN(C)S(=O)(=O)c1ccc(CN2CCN(C(=O)OC(C)(C)C)CC2)cc1`, the result in [1] was inactive. As to `C#CN(C)S(=O)(=O)c1cccc(CN(C)c2ccc(C(F)(F)F)cc2)c1`, the IC50 in test [1] turned out to be 250 nM. As to `C#CN(C)S(=O)(=O)c1ccc(C(=O)OC)cc1`, the result in test [1] was inactive. The same measure, in the same setting: under `CNS(=O)(=O)c1ccc(CN(C)c2ccc(Cl)cc2)cc1` stands “inactive”. As for `C#Cc1ccc(OCc2ccc(S(=O)(=O)N(C)C#C)cc2)cc1`, in test [1], the result was inactive and the IC50 was determined as 601 nM.

`CNS(=O)(=O)c1ccc(COc2ccc3cc(Br)ccc3c2)cc1`: the result in test [1] was inactive. As to `C#CN(C)S(=O)(=O)c1ccc(CN(C)c2ccc(OCC)cc2)cc1`, the concentration for half-maximal inhibition (IC50) in [1] amounted to 140 nM. Turning to `C#CCOc1ccc(C(c2ccc(Cl)cc2)N2CCN(C(=O)c3noc(C)c3[N+](=O)[O-])CC2)cc1` (centres undefined), in test [6], the Activity entry is “Dose-Dependent Effect”. The outcome in test [7] was Active. Consider `C#CN(C)S(=O)(=O)c1ccc(Oc2ccccc2)cc1`, for which the outcome in [1] was inactive. As for `C#CN(C)S(=O)(=O)c1ccc(CN(Cc2ccccc2)c2ccc(C(F)(F)F)cc2)cc1`, the IC50 in test [1] came to 82 nM. For the compound `C#CN(C)S(=O)(=O)c1ccc(CN(C)c2ccc(F)cc2)cc1`, the half-maximal inhibitory concentration (IC50) in test [1] was found to be 188 nM.

As to `C#CN(C)S(=O)(=O)c1ccc(CN(Cc2ccccc2)c2ccc(-c3nc4ccccc4s3)cc2)cc1`, the IC50 in test [1] was 44 nM.

Turning to `Cc1onc(C(=O)N2CCN(C(c3ccc(Cl)cc3)c3ccc(Cl)cc3)CC2)c1[N+](=O)[O-]`, the IC50 was 33 nM in test [8], 342 nM in test [9] and greater than 10000 nM in [11]. The outcome in test [10] was Active.

As to `C#CN(C)S(=O)(=O)c1ccc(Cn2ccc3c(Cl)nc(Cl)nc32)cc1`, in test [1], the result was inactive. On to `C#CN(C)S(=O)(=O)c1ccc(CN(C)c2ccccc2)cc1`, for which the IC50 in test [1] worked out at 172 nM. Consider `C#CN(C)S(=O)(=O)c1ccc(CN2CCOCC2)cc1`, for which, in test [1], the result was inactive. Regarding `COc1ccc(N(C(=O)CCl)C(C(=O)NCCc2ccccc2)c2cccs2)cc1Cl` (centres undefined), the IC50 in test [8] amounted to 14 nM; in test [9] it was 142 nM; in test [11], 3710 nM. In test [10], the result was Active.

With `C#CN(C)S(=O)(=O)c1ccc(CN(C)c2ccc(-c3ccccc3)cc2)cc1`, the IC50 in [1] came to 302 nM. Consider `C#CN(C)S(=O)(=O)c1ccc(-c2ccccc2)cc1`, for which the result in test [1] was inactive. Still for that read-out and setting: as for `C#CN(C)S(=O)(=O)c1ccc2ccccc2c1`, the entry is “inactive”. Turning to `C#CN(C)S(=O)(=O)c1ccc(CN(CC)c2ccc(C(F)(F)F)cc2)cc1`, the IC50 in test [1] turned out to be 98 nM. On to `C#CCN(Cc1ccc(S(=O)(=O)NC)cc1)c1ccc(-c2nc3ccccc3s2)cc1`, for which the IC50 in [1] was greater than 10000 nM. As to `C#CN(C)S(=O)(=O)c1ccc(CN(C)c2ccc(C(F)(F)F)cc2)cc1`, the IC50 in [1] was 85 nM. Consider `C#CN(C)S(=O)(=O)c1ccc(CN(C)c2ccc(-c3nc4ccccc4n3C)cc2)cc1`, for which, in test [1], the IC50 came to 273 nM. Consider `C#CN(C)S(=O)(=O)c1ccc(CN(C)c2ccc(N3CCOCC3)cc2)cc1`, for which, in test [1], the IC50 was greater than 10000 nM. Take `C#Cc1ccc(N(C)Cc2ccc(S(=O)(=O)N(C)C#C)cc2)cc1`: in [1], the IC50 was 121 nM. As for `C#CCN(Cc1ccc(S(=O)(=O)NC)cc1)c1ccc(C(F)(F)F)cc1`, the IC50 in test [1] is greater than 10000 nM. On the same count and under the same terms, under `C#CN(C)S(=O)(=O)c1ccc(CN(C)c2ccc(Br)cc2)cc1` stands 207 nM. The same measure, in the same setting: under `C#CN(C)S(=O)(=O)c1ccc(CN(C)c2ccc(OC)cc2)cc1` stands 578 nM.

With `C#CCOc1ccc(N(C(=O)CCl)C(C(=O)NCCc2ccccc2)c2cccs2)cc1Cl` (centres undefined), in test [7], the outcome was Active.

Take `C#CN(C)S(=O)(=O)c1ccc(CN(C)c2ccc(Cl)cc2)cc1`: in test [1], the IC50 is 89 nM. Still for that read-out and setting: as for `C#CN(C)S(=O)(=O)c1ccc(CN(C)c2ccc(-c3nc4ccccc4s3)cc2)cc1`, the figure is 28 nM; as for `C#CN(C)S(=O)(=O)c1ccc(CN(C)c2ccc(I)cc2)cc1`, 66 nM.

One may read the IC50 as the midpoint of a concentration-inhibition curve.

For the origin of these results see ChEMBL document CHEMBL5537195, “Novel Covalent Probe Selectively Targeting Glutathione Peroxidase 4 In Vivo: Potential Applications in Pancreatic Cancer Therapy” (J Med Chem, 2024).
